# Experiments:
# Experiment in all cases: MIC evaluation on pathogenic bacterial strains
# Assay type in all cases: cell-based
# [1] = test system: Escherichia coli (ATCC 30218)
# Source text: (§1) In particular, the efficacy of rifamicin SV was verified by means of an evaluation of the MIC (Minimum Inhibiting Concentration) on specific pathogenic bacterial strains, such as, for example, Escherichia coli, […], Proteus vulgaris, Pseudomonas aeruginosa, Salmonella typhi and Enterobacter cloacae as shown in the following Table A.
# [2] = test system: Staphylococcus aureus (ATCC 25213)
# Source text: as §1
# [3] = test system: Proteus vulgaris (ATCC 13315)
# Source text: as §1
# [4] = test system: Enterobacter faecalis (ATCC 29212)
# Source text: as §1
# [5] = test system: Salmonella typhi (ATCC 13331)
# Source text: as §1
# [6] = test system: Enterobacter cloacae (ATCC 17446431)
# Source text: as §1
# [7] = test system: Pseudomonas aeruginosa (ATCC 27853)
# Source text: as §1
substance,measurement,setting,value
rifamicin SV,MIC (Minimum Inhibiting Concentration),[1],400 µg/mL
same,MIC (Minimum Inhibiting Concentration),[2],<0.4 µg/mL
same,MIC (Minimum Inhibiting Concentration),[3],400 µg/mL
same,MIC (Minimum Inhibiting Concentration),[4],25 µg/mL
same,MIC (Minimum Inhibiting Concentration),[5],>400 µg/mL
same,MIC (Minimum Inhibiting Concentration),[6],>400 µg/mL
same,MIC (Minimum Inhibiting Concentration),[7],>400 µg/mL
